Results on 5 compounds are retold here after patent publication US20050034187A1, “Modified tet-inducible system for regulation of gene expression in plants” (priority 2000, published 2005).

For series [1], the system named is wild type tet Receptor and GUS gene controlled by TripleX promoter (pAC489/pAC499 double transformants). Description: Induction of the tet system in protoplast assays (GUS fluorescent assay). Format: cell-based, tobacco. Particulars: for magnitude of derepression (induction of GUS): protoplasts, seventh day of cultivation, FIG. 17. The method, then: Logarithmic scale is used for concentration axis.
Protoplasts were cultivated in the dark at 26° C. […] 100 μl of supernatant was used for the assay.

For series [2], the system named is wild type tet Receptor and TripleX-driven GUS gene (pAC489/pAC499 double transformants). Kind of series: Seed germination test: induction of GUS gene in seedlings. Format: in vivo, tobacco. The note with it: for inducing activity (GUS reporter gene): seed germination test, FIG. 18.
The subject of a further series is tobacco seedlings. Description: Visual evaluation of seedlings for toxicity in seed germination test. From the text: The purpose of this experiment was to determine the concentration curve for selected analogs. Seeds of homozygous tobacco carrying wild type tet Receptor and TripleX-driven GUS gene (pAC489/pAC499 double transformants) were germinated in presence of several analogs at different concentrations. Seedlings were visually evaluated for toxicity, collected and assayed. Each point on the graph represents an average of three samples.
Seeds of T2 homozygous tobacco carrying wild type tet Receptor and TripleX-driven GUS gene were germinated in the presence of several new analogs at different concentrations. Seedlings were visually evaluated for toxicity, collected and assayed.
The next step in evaluating the analogs was to determine their respective concentration curve. Seeds of homozygous tobacco carrying wild type tet Receptor and TripleX-driven GUS gene (pAC489/pAC499 double transformants) were germinated in the presence of several analogs at different concentrations. Seedlings were visually evaluated for toxicity, collected and assayed.

In series [3] the test system is tetracycline-sensitive bacteria. The note with it: concentrations of 0.3 mg/l and lower; according to supplier; cited from earlier work.
A further series concerns Mesophyll protoplasts. Kind of series: Toxicity of chemicals to protoplasts (division rate). Particulars: FIG. 17.
A further series concerns the target lac repressor (Escherichia coli, UniProt P03023). Particulars: Barkley and Bourgeois, 1980; cited from earlier work.
The next series relates to cells. The note with it: cited from earlier work.
For series [4], the system named is pAC499 (TripleX/GUS) with pACAG084 ((OCS)3MAS/nTR) or pACAG049 (MAR-(OCS)3MAS/nTR). Description: Time series of GUS induction in whole rooted plants. Format: in vivo, tobacco. The note with it: roots, tetracycline 2 mg/l, FIG. 16. The method, then:
FIG. 16—Induction of GUS Gene in Double Transformants: Time Series. Time series were run with the best double transformants carrying pAC499 (TripleX/GUS) and either of pACAG084 ((OCS)3MAS/nTR) or pACAG049 (MAR-(OCS)3MAS/nTR). Three weeks-old rooted plants were transferred from agar to magenta boxes with liquid medium and tetracycline 2 mg/l. Tissue samples were regularly taken from roots and assayed for GUS.
Time series were run with the best double transformants carrying pAC499 (TripleX/GUS) and either of pACAG084 ((OCS)3MAS/nTR) or pACAG049 (MAR-(OCS)3MAS/nTR). Three week-old rooted plants were transferred from agar to magenta boxes with liquid medium and tetracycline 2 mg/l. Tissue samples were regularly taken from leaves and roots and assayed for GUS. […] The latter result was consistently observed, as well as, in experiments from the literature.

Entries after “also recorded” stand apart in the source; their conditions may differ.

Chain of lac repressor (P03023 whole entry): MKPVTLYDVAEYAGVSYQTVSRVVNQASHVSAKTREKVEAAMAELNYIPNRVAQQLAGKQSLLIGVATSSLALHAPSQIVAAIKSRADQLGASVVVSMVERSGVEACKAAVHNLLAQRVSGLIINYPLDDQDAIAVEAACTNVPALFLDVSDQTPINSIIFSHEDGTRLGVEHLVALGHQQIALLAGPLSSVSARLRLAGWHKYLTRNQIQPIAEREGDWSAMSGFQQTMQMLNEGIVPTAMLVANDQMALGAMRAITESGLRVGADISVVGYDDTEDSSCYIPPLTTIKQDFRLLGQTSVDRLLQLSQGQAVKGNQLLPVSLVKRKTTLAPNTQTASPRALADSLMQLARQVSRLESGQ
Experimental for Mesophyll protoplasts: Mesophyll protoplasts were isolated from T2 transgenic tobacco carrying both wild type tet Receptor and GUS gene controlled by TripleX promoter (pAC489/pAC499 double transformants) and were cultivated at a concentration of 5×10^4 cells/ml in liquid KM medium supplemented with tet analogs at 2-5 mg/l in the dark at 26° C. Total and divided protoplasts were counted and GUS fluorescent assays were performed on the seventh day of cultivation. Toxicity of chemicals was evaluated by division rate—the number of divisions divided by the total number of viable cells and multiplied by 100. Each point on the graphs represents an average of three samples.
Protoplasts were cultivated in the dark at 26° C. First divisions were usually observed after 36-60 hours of cultivation; second and sometimes third divisions were visible beginning from the fifth day. Total and divided protoplasts were counted and GUS fluorescent assays performed on the seventh day. In all experiments protoplasts were counted in a fixed volume of 2 mm^3 using hemocytometer (Hausser Scientific Partnership). Toxicity of chemicals was evaluated by division rate—the number of divisions divided by the total number of viable cells and multiplied by 100. […] 100 μl of supernatant was used for the assay. […]

Turning to `Cc1c2c(c(O)c3c(O)cccc13)C(=O)[C@]1(O)C(=O)C(C(N)=O)=C(O)[C@@H](N(C)C)[C@@H]1C2` [1665-56-1, anhydrotetracycline], the “magnitude of derepression (induction of GUS)” value in series [1] is reported as “not a good derepressing agent; also recorded: able to induce the system”. Also, in series [2], the “inducing activity (GUS reporter gene)” value is “negligible induction”.
As for `CN(C)C1C(=O)C(C(N)=O)=C(O)C2(O)C(=O)C3=C(O)c4c(O)cccc4CC3CC12` (centres unmarked) [95702-03-7, 6-deoxy-6-demethyl tetracycline], the “toxicity compared with other inducers” value in the series with tobacco seedlings (concentration curve experiment, FIG. 19) is “lower toxicity than doxycycline and tetracycline”. Besides, the “inducer potency compared with tetracycline” value in series [1] (concentrations of 0.3 mg/l and lower) was “more potent inducer at concentrations of 0.3 mg/l and lower”. Besides, in series [1], the “magnitude of derepression (induction of GUS)” value was “the same magnitude of derepression and toxicity as tetracycline”. Moreover, the “inducing activity (GUS reporter gene)” value in series [2] is “higher than that of the industry standard, doxycycline”. Moreover, the “induction of the GUS reporter gene” value in series [2] (summary of in vitro tests of several tetracycline analogs) is listed as “very good induction”. For the same compound, the “toxicity to tetracycline-sensitive bacteria” value in series [3] was “not toxic to tetracycline-sensitive bacteria”. Also, the “toxicity to plant cells” value with Mesophyll protoplasts was “the same magnitude of derepression and toxicity as tetracycline”.
On to `CN(C)C1C(=O)C(C(N)=O)=C(O)C2(O)C(=O)C3=C(O)c4c(O)ccc(Br)c4CC3CC12` (centres unmarked) [101057-85-6, 7-bromo-6-deoxy-6-demethyl tetracycline], for which the “inducing activity (GUS reporter gene)” value in series [2] was “moderate inducer”.
As for `CC(C)S[C@@H]1O[C@H](CO)[C@H](O)[C@H](O)[C@H]1O` [IPTG, isopropyl-B-D-thiogalactopyranoside], on lac repressor, the “reduction of the affinity of repressor for the operator” value was 300 fold. Besides, the “toxicity of the level required to induce a lac repressor system” value with cells was “cytotoxic to cells”.
As for `CN(C)[C@@H]1C(O)=C(C(N)=O)C(=O)[C@@]2(O)C(O)=C3C(=O)c4c(O)cccc4[C@@](C)(O)[C@H]3C[C@@H]12` [tetracycline], the “toxicity evaluation (growth of plantlets)” value in the series on tobacco seedlings (concentration of 10 mg/l, FIG. 19 experiment) was “slightly stunted growth of plantlets”. The “magnitude of induction at maximum” value in series [4] came out at 3.5 fold.
